Reference: patent US20240148821A1, “PHARMACEUTICAL USE OF CYCLIC PEPTIDE COMPOUND” (CHUGAI SEIYAKU KABUSHIKI KAISHA, priority 2021, published 2024)
pIC50: −log10 of the molar value. Numbered stars: 1 amine (or outer) side, 2 acyl side, 3 side chain; on linkers, the order of the positions; unused ones are H or OH. Bridge positions count the residues as written; N and C are the ends. Square brackets hold non-standard residues; d marks the D form. Peptide text beside a SMILES is read from it. * marks the point of attachment. hPhe(3-Cl-4-CF3) = N[C@@H](CCc1ccc(C(F)(F)F)c(Cl)c1)C(=O)O; hPhe(3-F,4-CF3) = N[C@@H](CCc1ccc(C(F)(F)F)c(F)c1)C(=O)O; NMePhe(4-CF3) = CN[C@@H](Cc1ccc(C(F)(F)F)cc1)C(=O)O; NEtPhe(4-Me) = CCN[C@@H](Cc1ccc(C)cc1)C(=O)O; NMedβ3hAla = C[C@H](CC(=O)[*:2])N(C)[*:1]; NMeGly(cPent) = CN[C@H](C(=O)O)C1CCCC1; NMeCha = CN[C@@H](CC1CCCCC1)C(=O)O; Hyp = O=C(O)[C@@H]1C[C@@H](O)CN1; NMeI = CC[C@H](C)[C@H](NC)C(=O)O; Gly(cPr) = N[C@H](C(=O)O)C1CC1; NMeD = CN[C@@H](CC(=O)O)C(=O)O; NMeL = CN[C@@H](CC(C)C)C(=O)O; Ala(CN) = N#CC[C@H](N)C(=O)O; NMeV = CN[C@H](C(=O)O)C(C)C; Trifluoroethyl = FC(F)(F)C*; NMeS = CN[C@@H](CO)C(=O)O; Morpholide = C1CN(*)CCO1; NMeA = CN[C@@H](C)C(=O)O; Piperidide = C1CCN(*)CC1; dNMeA = CN[C@H](C)C(=O)O; Ac5c = NC1(C(=O)O)CCCC1; Aze = O=C(O)[C@@H]1CCN1; Sar = CNCC(=O)O; Propyl = CCC*

Tests used:
[1] = target: protein-protein interaction between Kras and SOS1 (biotin-tagged human Kras loaded with GDP, His-tagged human SOS1) (Homo sapiens (Human), UniProt P01116, G12D); experiment: Protein-protein interaction inhibition between Kras and SOS1 (KrasG12D-SOS PPI) using AlphaScreen; assay type: biochemical; details: AlphaScreen; biotin-tagged human Kras loaded with GDP, His-tagged human SOS1; read-out: KRAS G12D-SOS PPI IC50;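 further: kras produced in E. coli, Ni-coupled donor beads and streptavidin acceptor beads, excitation 680 nm with emission detected at 520–620 nm via singlet oxygen transfer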
[2] = test system: Human pancreatic cancer cell line AsPC-1 (G12D mutation Kras); experiment: AsPC-1 cell growth inhibition (AsPC-1 CGI); assay type: cell-based; details: read-out: AsPC-1 cell growth inhibition, 50% growth inhibitory concentration (IC50 value); 96 hours, CellTiter-Glo, values classified in ranges
Method: Test compounds were serially dilated with dimethyl sulfoxide, and 200 nL was then dispensed to a U-bottom 96-well plate using Labcyte Echo. […] The cell suspension was dispensed to a. plate containing a test compound at 100 μL per well and incubated at 37° C. in a 5% carbon dioxide gas incubator. 96 hours later, 80 μL of CellTiter-Glo (Promega) was added to each well and fluorescence was measured.

| Structure (SMILES) | pIC50 [1] | pIC50 [2] |
| --- | --- | --- |
| CC[C@H](C)[C@@H]1NC(=O)[C@H](CC(C)C)N(C)C(=O)C[C@@H](C(=O)N2CCOCC2)N(C)C(=O)[C@H]([C@@H](C)CC)N(C)C(=O)C2(CCCC2)NC(=O)[C@@H]2CCCN2C(=O)[C@H](CCc2ccc(C(F)(F)F)c(Cl)c2)NC(=O)CN(C)C(=O)[C@H](Cc2ccc(C(F)(F)F)cc2)N(C)C(=O)[C@@H]2CCN2C(=O)[C@H](C)N(C)C1=O [Compound 276] ([NMeL]I[NMeA][Aze][NMePhe(4-CF3)][Sar][hPhe(3-Cl-4-CF3)]P[Ac5c][NMeI][NMeD]-Morpholide; lactam N-11) | 9.12 | ≥ 7.70 |
| CC(C)C[C@H]1C(=O)N[C@@H](CC#N)C(=O)N(C)[C@@H](C)C(=O)N2CC[C@H]2C(=O)N(C)[C@@H](CC2CCCCC2)C(=O)N(C)CC(=O)N[C@@H](CCc2ccc(C(F)(F)F)c(Cl)c2)C(=O)N2CCC[C@H]2C(=O)NC2(CCCC2)C(=O)N(C)[C@@H](C(C)C)C(=O)N(C)[C@H](C(=O)N2CCCCC2)CC(=O)N1C [Compound 278] ([NMeL][Ala(CN)][NMeA][Aze][NMeCha][Sar][hPhe(3-Cl-4-CF3)]P[Ac5c][NMeV][NMeD]-Piperidide; lactam N-11) | 7.60 | < 6.30 |
| CC[C@H](C)[C@@H]1NC(=O)[C@H](CC(C)C)N(C)C(=O)C[C@@H](C(=O)N(C)C)N(C)C(=O)[C@H](C2CCCC2)N(C)C(=O)C2(CCCC2)NC(=O)[C@@H]2CCCN2C(=O)[C@H](CCc2ccc(C(F)(F)F)c(Cl)c2)NC(=O)CN(C)C(=O)[C@H](Cc2ccc(C)cc2)N(CC)C(=O)[C@@H]2CCN2C(=O)[C@H](C)N(C)C1=O [Compound 279] ([NMeL]I[NMeA][Aze][NEtPhe(4-Me)][Sar][hPhe(3-Cl-4-CF3)]P[Ac5c][NMeGly(cPent)][NMeD]-NMe2; lactam N-11) | 9.00 | ≥ 7.70 |
| CC(C)C[C@H]1C(=O)N[C@@H](C2CC2)C(=O)N(C)[C@@H](C)C(=O)N2CC[C@H]2C(=O)N(C)[C@@H](CC2CCCCC2)C(=O)N(C)CC(=O)N[C@@H](CCc2ccc(C(F)(F)F)c(Cl)c2)C(=O)N2CCC[C@H]2C(=O)NC2(CCCC2)C(=O)N(C)[C@@H](C(C)C)C(=O)N(C)[C@H](C(=O)N2CCCCC2)CC(=O)N1C [Compound 280] ([NMeL][Gly(cPr)][NMeA][Aze][NMeCha][Sar][hPhe(3-Cl-4-CF3)]P[Ac5c][NMeV][NMeD]-Piperidide; lactam N-11) | 7.62 | < 6.30 |
| CCCOC[C@H]1C(=O)N(C)CC(=O)N[C@@H](CCc2ccc(C(F)(F)F)c(F)c2)C(=O)N2CCC[C@H]2C(=O)NC2(CCCC2)C(=O)N(C)[C@@H](C2CCCC2)C(=O)N(C)[C@H](C(=O)N(C)C)CC(=O)N(C)[C@@H](CC(C)C)C(=O)N[C@@H]([C@@H](C)CC)C(=O)N(C)[C@@H](C)C(=O)N2CC[C@H]2C(=O)N1C [Compound 289] ([NMeL]I[NMeA][Aze][NMeS](Propyl)[Sar][hPhe(3-F,4-CF3)]P[Ac5c][NMeGly(cPent)][NMeD]-NMe2; lactam N-11) | 9.52 | ≥ 7.70 |
| CCO[C@@H]1C[C@H]2C(=O)NC3(CCCC3)C(=O)N(C)[C@@H]([C@@H](C)CC)C(=O)N(C)[C@H](C)CC(=O)N(C)[C@@H](CC(C)C)C(=O)N[C@@H]([C@@H](C)CC)C(=O)N(C)[C@@H](C)C(=O)N3CC[C@H]3C(=O)N(C)[C@@H](Cc3ccc(C(F)(F)F)cc3)C(=O)N(C)CC(=O)N[C@@H](CCc3ccc(C(F)(F)F)c(Cl)c3)C(=O)N2C1 [Compound 301] (cyclo([Ac5c][NMeI][NMedβ3hAla][NMeL]I[NMeA][Aze][NMePhe(4-CF3)][Sar][hPhe(3-Cl-4-CF3)][Hyp](Et))) | 9.13 | ≥ 7.70 |
| CC[C@H](C)[C@@H]1NC(=O)[C@H](CC(C)C)N(C)C(=O)C[C@@H](C(=O)N2CCOCC2)N(C)C(=O)[C@H](C2CCCC2)N(C)C(=O)C2(CCCC2)NC(=O)[C@@H]2CCCN2C(=O)[C@H](CCc2ccc(C(F)(F)F)c(Cl)c2)NC(=O)CN(C)C(=O)[C@H](C2CCCC2)N(C)C(=O)[C@@H]2CCN2C(=O)[C@H](C)N(C)C1=O [Compound 302] ([NMeL]I[NMeA][Aze][NMeGly(cPent)][Sar][hPhe(3-Cl-4-CF3)]P[Ac5c][NMeGly(cPent)][NMeD]-Morpholide; lactam N-11) | 9.17 | ≥ 7.70 |
| CC(C)C[C@H]1C(=O)N[C@@H](COCC(F)(F)F)C(=O)N(C)[C@@H](C)C(=O)N2CC[C@H]2C(=O)N(C)[C@@H](CC2CCCCC2)C(=O)N(C)CC(=O)N[C@@H](CCc2ccc(C(F)(F)F)c(Cl)c2)C(=O)N2CCC[C@H]2C(=O)NC2(CCCC2)C(=O)N(C)[C@@H](C(C)C)C(=O)N(C)[C@H](C(=O)N2CCCCC2)CC(=O)N1C [Compound 304] ([NMeL]S(Trifluoroethyl)[NMeA][Aze][NMeCha][Sar][hPhe(3-Cl-4-CF3)]P[Ac5c][NMeV][NMeD]-Piperidide; lactam N-11) | 7.06 | < 6.30 |
| CC[C@H](C)[C@@H]1NC(=O)[C@H](C)N(C)C(=O)C[C@@H](C(=O)N2CCCCC2)N(C)C(=O)[C@H](C(C)C)N(C)C(=O)C2(CCCC2)NC(=O)[C@@H]2CCCN2C(=O)[C@H](CCc2ccc(C(F)(F)F)c(Cl)c2)NC(=O)[C@@H](C)N(C)C(=O)[C@H](CC2CCCCC2)N(C)C(=O)[C@@H]2CCCN2C(=O)CN(C)C1=O [Compound 307] ([NMeA]I[Sar]P[NMeCha][dNMeA][hPhe(3-Cl-4-CF3)]P[Ac5c][NMeV][NMeD]-Piperidide; lactam N-11) | 8.36 | < 6.30 |
